Drawing on patent US20130164259A1, “1,4-S[…] DERIVATIVES AND METHODS OF USE THEREOF” (priority 2009, published 2013), this text covers IC50 for 30 compounds.

This assay has as its target T1, HCV NS5B polymerase (NS5BΔCT21) (Hepatitis C virus genotype 1b, UniProt Q9WMX2).
T1 construct: A soluble C-terminal 21-amino acid truncated NS5B enzyme form; polyhistidine (C); made in house; host or cells: Escherichia coli
Briefly: HCV NS5B Polymerase Inhibition Assay. Type of assay: biochemical, HCV-Con 1 isolate. From the text: A chemically synthesized 75-mer version, designated DCoH75, whose sequence matches the 3′-end of D-RNA, and DCoH75ddC, where the 3′-terminal cytidine of DCoH75 is replaced by dideoxycytidine, were used for assaying the NS5B enzyme activity as described in Ferrari et al., 12th International Symposium on HCV and Related Viruses, P-306 (2005). The sequence of the template RNA was: 5′-UGUGCCGGUCUUUCUGAACGGGAUAUAAACCUGGCCAGCUUCAUCGAACAAGUUGCCGUGUCUAUGACAUAGAUC-3′ (SEQ ID NO: 1). A soluble C-terminal 21-amino acid truncated NS5B enzyme form (NS5BΔCT21, from HCV-Con 1 isolate, genotype 1b, Genbank accession number AJ238799) was produced and purified from Escherichia coli as C-terminal polyhistidine-tagged fusion protein as described in Ferrari et al., J. Virol. 73:1649-1654 (1999). A typical assay contained 20 mM Hepes pH 7.3, 10 mM MgCl2, 60 mM NaCl, 100 μg/ml BSA, 20 units/ml RNasin, 7.5 mM DTT, 0.1 μM ATP/GTP/UTP, 0.026 μM CTP, 0.25 mM GAU, 0.03 μM RNA template, 20 μCi/ml [^33P]-CTP, 2% DMSO, and 30 or 150 nM NS5B enzyme. Reactions were incubated at 22° C. for 2 hours, then stopped by adding 150 mM EDTA, washed in DE81 filter plate in 0.5M di-basic sodium phosphate buffer, pH 7.0, and counted using Packard TopCount after the addition of scintillation cocktail. Polynucleotide synthesis was monitored by the incorporation of radiolabeled CTP. The effect of the Compounds of Formula (I) on the polymerase activity was evaluated by adding various concentrations of a Compound of Formula (I), typically in 10 serial 2-fold dilutions, to the assay mixture. The starting concentrations ranged from 200 μM to 1 μM. An IC50 value for the inhibitor, defined as the compound concentration that provides 50% inhibition of polymerase activity, was determined by fitting the cpm data to the Hill equation Y=100/(1+10̂((LogIC50−X)*HillSlope)), where X is the logarithm of compound concentration, and Y is the % inhibition. Ferrari et al., 12th International Symposium on HCV and Related Viruses, P-306 (2005) described in detail this assay procedure. It should be noted that such an assay as described is exemplary and not intended to limit the scope of the invention. The skilled practitioner can appreciate that modifications including but not limited to RNA template, primer, nucleotides, NS5B polymerase form, buffer composition, can be made to develop similar assays that yield the same result for the efficacy of the compounds and compositions described in the invention.
NS5B polymerase inhibition data was calculated for the compounds of the present invention using this method and is set forth in the table below.

The structures appear in SMILES notation.

In turn, `Cc1cnc(N2CCN(c3cc(C(C)C)ccc3NC(=O)c3cccnc3)CC2)s1` [Compound 49] displayed a half-maximal inhibitory concentration (IC50) of 3.9 µM.
The figure for `Cc1cnc(C)c(N2CCN(c3cc(C(C)C)ccc3NC(=O)c3cccnc3)CC2)n1` [Compound 46] is 140 µM; for `Cc1ncccc1C(=O)Nc1ccc(C(C)C)cc1N1CCN(c2cncc(C3CC3)n2)CC1` [Compound 61] it is 1 µM.
In the case of `CC(C)c1ccc(NC(=O)c2ccccn2)c(N2CCN(c3cnccn3)CC2)c1` [Compound 33], the concentration for half-maximal inhibition (IC50) is more than 20 µM.
As to `CC(C)c1ccc(NC(=O)c2cccnc2C2CC2)c(N2CCN(c3cnccn3)CC2)c1` [Compound 3], the midpoint of inhibition, the IC50, lay at 2 µM.
As to `Cc1cncc(N2CCN(c3cc(C(C)C)ccc3NC(=O)c3cccnc3)CC2)n1` [Compound 40], the IC50 is 0.5 µM.
The figure for `Cc1ccc(C(=O)Nc2ccc(C(C)C)cc2N2CCN(c3cnccn3)CC2)cn1` [Compound 17] is 14 µM; for `CC(C)c1ccc(NC(=O)c2cnc3ccccc3c2)c(N2CCN(c3cnccn3)CC2)c1` [Compound 19] it is 6.7 µM; for `CC(C)(C)c1ccc(NC(=O)c2cccnc2)c(N2CCN(c3cnccn3)CC2)c1` [Compound 63] it is 3 µM.
Regarding `Cc1ncsc1C(=O)Nc1ccc(C(C)C)cc1N1CCN(c2cnccn2)CC1` [Compound 20], the IC50 is 0.58 µM. This IC50 is about 5.2-fold lower than that of the compound before.
With `Cc1c(F)ccc(F)c1C(=O)Nc1ccc(C(C)C)cc1N1CCN(c2cnccn2)CC1` [Compound 15] the figure was 54 µM.
The figure for `Cc1nccnc1N1CCN(c2cc(C(C)C)ccc2NC(=O)c2cccnc2)CC1` [Compound 45] is 3.9 µM.
`Cc1ncccc1C(=O)Nc1ccc(C(C)C)cc1N1CCN(c2ncnc3ccsc23)CC1` [Compound 59]: 0.014 µM corresponded to half-maximal inhibition (IC50). Compared with the last compound, the IC50 is about 280-fold lower.
The figure for `Cc1nocc1C(=O)Nc1ccc(C(C)C)cc1N1CCN(c2cnccn2)CC1` [Compound 38] is 13 µM.
For `CC(C)c1ccc(NC(=O)c2cccnc2C(F)(F)F)c(N2CCN(c3cnccn3)CC2)c1` [Compound 7], inhibition was half-maximal at 2.3 µM (IC50).
`Cc1ncccc1C(=O)Nc1ccc(C(C)C)cc1N1CCN(c2cnccn2)CC1` [Compound 2] came in with an IC50 of 0.52 µM. This IC50 lies about 4.4-fold lower than the previous one.
With `Cc1csc(N2CCN(c3cc(C(C)C)ccc3NC(=O)c3cccnc3)CC2)n1` [Compound 48] the figure was 15 µM.
Compound `O=C(Nc1ccc(-c2ccccc2)cc1N1CCN(c2cnccn2)CC1)c1cccnc1` [Compound 67] came in with an IC50 of 8 µM.
With `CC(C)c1ccc(NC(=O)c2cccnc2F)c(N2CCN(c3cnccn3)CC2)c1` [Compound 6] the figure was 2.2 µM.
`CC(C)c1ccc(NC(=O)c2cnc3[nH]ccc3c2)c(N2CCN(c3cnccn3)CC2)c1` [Compound 24]: the half-inhibitory concentration (IC50) was more than 20 µM.
With `O=C(Nc1ccc(C2CC2)cc1N1CCN(c2cnccn2)CC1)c1cccnc1` [Compound 66] the figure was 12 µM; with `O=C(Nc1ccc(C(F)(F)F)cc1N1CCN(c2cnccn2)CC1)c1cccnc1` [Compound 68], more than 20 µM; with `CC(C)c1ccc(NC(=O)c2cccnc2)c(N2CCN(c3ncccn3)CC2)c1` [Compound 43], 2.3 µM.
`Cc1n[nH]cc1C(=O)Nc1ccc(C(C)C)cc1N1CCN(c2cnccn2)CC1` [Compound 39] came in with a concentration for half-maximal inhibition (IC50) of more than 200 µM.
With `CC(C)c1ccc(NC(=O)C2CCCNC2)c(N2CCN(c3cnccn3)CC2)c1` (stereo not drawn) [Compound 32] the figure was more than 200 µM; with `CC(C)c1ccc(NC(=O)c2cnccc2C(F)(F)F)c(N2CCN(c3cnccn3)CC2)c1` [Compound 26], more than 20 µM.
Turning to `CC(C)c1ccc(NC(=O)c2cncnc2)c(N2CCN(c3cnccn3)CC2)c1` [Compound 34], the IC50 is more than 20 µM.
The figure for `CC(C)c1ccc(NC(=O)c2ccsc2)c(N2CCN(c3cnccn3)CC2)c1` [Compound 23] is 7 µM; for `C=C(C)c1ccc(NC(=O)c2cccnc2)c(N2CCN(c3cnccn3)CC2)c1` [Compound 64] it is 7 µM.
Compound `Cc1oncc1C(=O)Nc1ccc(C(C)C)cc1N1CCN(c2cnccn2)CC1` [Compound 27] yielded a concentration for half-maximal inhibition (IC50) of 13 µM.

As a reminder, the IC50 is the point on the concentration scale where inhibition reaches its midpoint. The low end stands for higher potency, the high end for lower potency.
